Data from patent publication US9233946B2, “Sulfonamide compounds” (KANCERA AB, priority 2010, dated 2016).

These molecules were tested on PANC-1 cells (assay: Quantification of F-2,6-P2 in PANC-1 cells). Settings: Homo sapiens, PANC-1; read-out: IC50 based on quantification of F-2,6-P2.
Assay type: cell-based
Text: The relative kinase (formation) and phosphatase (degradation) activities of the bi-functional enzymes PFKFB3 and PFKFB4 control the intracellular levels of the regulator F-2,6-P2, which acts as an allosteric activator of glycolysis. The levels of F-2,6-P2 have been determined in three different cancer cell lines (MCF-7, PANC-1 and NUGC-3) using the van Shaftingen assay. The assay protocols described under “Methods for measurement of enzymatic activity of PFKFB3 and PFKFB4, Method A” have been adapted for the measurement of the inhibitory effect of compounds on the kinase activity of the various isoforms of the bifunctional enzyme (endogenously expressed) in the different cell lines. The modifications are described in the protocol below. All reagents were purchased from commercial sources or prepared inhouse.
Cell Line B (PANC-1, Human Pancreatic Carcinoma Cell Line)
• Cells: PANC-1 (ATCC-CRL-1469). Lot. no: 58564651. • Growth medium: Dulbecco's Modified Eagle's Medium, DMEM, ATCC-30-2002 10% FBS, Invitrogen, 10106-169
Cells were seeded at a concentration of 250 000 cells/mL in 100 μL growth medium (25 000 cells/well)
Starvation medium: DMEM/F12 without phenol red and glucose free, SVA, 991373 0.25% FBS, Invitrogen, 10106-169
Induction medium: DMEM/F12 without phenol red and glucose free, SVA, 991373 0.25% FBS, Invitrogen, 10106-169 (same as starvation medium)
Cells were seeded in 96-well Corning Costar tissue culture plates (CLS3595, Sigma-Aldrich) using the concentrations specified above for the three different cell lines A-C and incubated over night at 37° C. and 5% CO2. Row A was left empty. Next day the growth medium was discarded and replaced with 100 μL starvation medium. The plates were incubated for 18 h at 37° C. and 5% CO2. After 18 h of starvation the cells were induced with 100 μL compound or control solutions. Compounds were either tested in two concentrations (50 μM and 10 μM) or in dose response curves starting from 50 μM and the final DMSO concentration in assay plates was 0.5%. Also a dose response curve of a reference inhibitor was included in row H on each plate. All compounds were tested in duplicate plates. Compounds (in 96 well CLS 3365, Sigma-Aldrich) were serial diluted in DMSO from 10 mM compound DMSO stock solutions with Janus (automated liquid handling workstation from PerkinElmer). 5 μL were transferred to a Greiner deep well plate (736-0155, VWR) with 495 μL starvation medium. The final start concentration of compounds in the dilution plate was 100 μM, 1% DMSO. For compounds tested as single points, 10 mM compound solutions were diluted five fold in DMSO to 2 mM, followed by the transfer of 5 μL to separate dilution plates with 495 μL starvation medium. The final concentration of compounds in these dilution plates were 100 or 20 μM, respectively, and final concentration of DMSO was 1%. The plates were incubated at 37° C. and 5% CO2 for 1 h, followed by the addition of 10 μL 20 mM D-glucose in starvation medium. Controls, with and without 1 mM glucose, were included in row B. The final assay volume was 210 μL per well. After 2 h of incubation at 37° C. and 5% CO2, supernatants were discarded and the cells were lysed by the addition of 25 μL 250 mM NaOH. The plates were incubated at 37° C. and 5% CO2 for 5 min followed by an addition of 75 μL MilliQ dH2O. The supernatants were further diluted with 210 μL MilliQ dH2O to a final concentration of 20 mM NaOH. 200 μL were transferred to NUNC 96-well plates (7322661, VWR) and the plates were sealed and stored at −20° C. until analysis.
The amount of F-2,6-P2 was quantified based on the coupled enzymatic reaction described by Van Schaftingen. If necessary the samples were further diluted in 20 mM NaOH before quantification. Plates stored at −20° C. were thawed and the F-2,6-P2 quantification was initiated by transferring 40 μL from each well of the NUNC plate to the corresponding position in a trans-parent 96-well SpectraPlate-MB (6005649, PerkinElmer). […]

IC50 [µM]	SMILES
7.5	Cc1c(S(=O)(=O)Nc2cccc(-c3nnn[nH]3)c2)sc2ccc(C(C)C)cc12 [Example 4, 5-Isopropyl-3-methyl-N-[3-(1H-tetrazol-5-yl)phenyl]benzothiophene-2-sulfonamide]
5.4	COC(=O)c1cccc(NS(=O)(=O)c2ccc(-c3csc(C)n3)s2)c1 [Example 88, Methyl 3-({[5-(2-methyl-1,3-thiazol-4-yl)-2-thienyl]sulfonyl}amino)benzoate]
0.5	COC(=O)c1cccc(NS(=O)(=O)c2sc3ccc(C(C)C)cc3c2C)c1 [Example 92, Methyl 3-({[3-methyl-5-(1-methylethyl)-1-benzothiophen-2-yl]sulfonyl}amino)benzoate]
3.1	Cc1c(S(=O)(=O)Nc2cccc(C(=O)OC(C)C)c2)sc2ccc(Cl)cc12 [Example 108, Isopropyl 3-{[(5-chloro-3-methyl-1-benzothien-2-yl)sulfonyl]amino}benzoate]
4.3	CCCOC(=O)c1cccc(NS(=O)(=O)c2sc3ccc(Cl)cc3c2C)c1 [Example 112, Propyl 3-{[(5-chloro-3-methyl-1-benzothien-2-yl)sulfonyl]amino}benzoate]
1.3	Cc1c(S(=O)(=O)Nc2cccc(C(=O)OC3CCOC3)c2)sc2ccc(Cl)cc12 (stereo not drawn) [Example 116, Tetrahydrofuran-3-yl 3-{[(5-chloro-3-methyl-1-benzothiophen-2-yl)sulfonyl]amino}benzoate]
2.8	Cc1c(S(=O)(=O)Nc2cccc(C(=O)OCCCN(C)C)c2)sc2ccc(Cl)cc12 [Example 118, 3-(Dimethylamino)propyl 3-{[(5-chloro-3-methyl-1-benzothiophen-2-yl)sulfonyl]amino}benzoate]
7	COC(=O)Cn1nnc(-c2cccc(NS(=O)(=O)c3sc4ccc(C(C)C)cc4c3C)c2)n1 [Example 119, Methyl {5-[3-({[3-methyl-5-(1-methylethyl)-1-benzothiophen-2-yl]sulfonyl}amino)phenyl]-2H-tetrazol-2-yl}acetate]
3.5	COC(=O)c1cccc(NS(=O)(=O)c2sc3ccc(Br)cc3c2C)c1 [Example 120, Methyl 3-{[(5-bromo-3-methyl-1-benzothiophen-2-yl)sulfonyl]amino}benzoate]
9	COC(=O)c1cccc(NS(=O)(=O)c2sc3c(OC)cccc3c2C)c1 [Example 121, Methyl 3-{[(7-methoxy-3-methyl-1-benzothiophen-2-yl)sulfonyl]amino}benzoate]
8.7	COC(=O)c1cccc(NS(=O)(=O)c2sc3c(Cl)cccc3c2C)c1 [Example 122, Methyl 3-{[(7-chloro-3-methyl-1-benzothiophen-2-yl)sulfonyl]amino}benzoate]

Same assay, conditions: Homo sapiens; at 12.5 μM in PANC-1 cells

SMILES	inhibition at 12.5 µM [%]
Cc1c(S(=O)(=O)Nc2cccc(C(=O)OCCn3cccc3)c2)sc2ccc(Cl)cc12 [Example 106, 2-(1H-Pyrrol-1-yl)ethyl 3-{[(5-chloro-3-methyl-1-benzothien-2-yl)sulfonyl]amino}benzoate]	> 50
CCOC(=O)c1cccc(NS(=O)(=O)c2sc3ccc(Cl)cc3c2C)c1 [Example 107, Ethyl 3-{[(5-chloro-3-methyl-1-benzothien-2-yl)sulfonyl]amino}benzoate]	> 50
COCCOC(=O)c1cccc(NS(=O)(=O)c2sc3ccc(Cl)cc3c2C)c1 [Example 109, 2-Methoxyethyl 3-{[(5-chloro-3-methyl-1-benzothiophen-2-yl)sulfonyl]amino}benzoate]	> 50
Cc1c(S(=O)(=O)Nc2cccc(C(=O)OCc3ccccc3)c2)sc2ccc(Cl)cc12 [Example 111, Benzyl 3-{[(5-chloro-3-methyl-1-benzothiophen-2-yl)sulfonyl]amino}benzoate]	> 50
CCCCCOC(=O)c1cccc(NS(=O)(=O)c2sc3ccc(Cl)cc3c2C)c1 [Example 113, Pentyl 3-{[(5-chloro-3-methyl-1-benzothiophen-2-yl)sulfonyl]amino}benzoate]	> 50
Cc1c(S(=O)(=O)Nc2cccc(C(=O)Oc3ccccc3)c2)sc2ccc(Cl)cc12 [Example 115, Phenyl 3-{[(5-chloro-3-methyl-1-benzothiophen-2-yl)sulfonyl]amino}benzoate]	> 50
Cc1c(S(=O)(=O)Nc2cccc(C(=O)OCC3CCOC3)c2)sc2ccc(Cl)cc12 (stereo not drawn) [Example 117, Tetrahydrofuran-3-ylmethyl 3-{[(5-chloro-3-methyl-1-benzothiophen-2-yl)sulfonyl]amino}benzoate]	> 50
COC(=O)c1cccc(NS(=O)(=O)c2oc3ccc(C(C)C)cc3c2C)c1 [Example 123, Methyl 3-({[3-methyl-5-(1-methylethyl)-1-benzofuran-2-yl]sulfonyl}amino)benzoate]	> 50
CCOC(=O)c1sc(NS(=O)(=O)c2sc3ccc(Cl)cc3c2C)nc1C [Example 126, Ethyl 2-{[(5-chloro-3-methyl-1-benzothiophen-2-yl)sulfonyl]amino}-4-methyl-1,3-thiazole-5-carboxylate]	> 50
CCOC(=O)c1sc(NS(=O)(=O)c2cc(-c3cc(F)ccc3F)c(Cl)s2)nc1C [Example 127, Ethyl 2-({[5-chloro-4-(2,5-difluorophenyl)thiophen-2-yl]sulfonyl}amino)-4-methyl-1,3-thiazole-5-carboxylate]	> 50
